# In patent US20060269497A1, “Trichogenous agent” (YAMAHA HATSUDOKI KABUSHIKI KAISHA, priority 2005, published 2006):
# Experiments:
# [1] = test system: Human umbilical vein endothelial cells (HUVECs); assay: Measurement of 50% lethal concentration for HUVEC (alamarBlue); type: cell-based; settings: 72 hours incubation, 250 μM = maximum concentration dissolved in DMSO
# Description: Human umbilical vein endothelial cells (HUVECs) (ATCC CRL-1730) were obtained from American Type Culture Collection and precultivated in an Endothelial Cell Growth Medium (CELL APPLICATIONS, USA) containing 10% bovine fetal serum supplemented with 1% Antibiotic-Antimycotic solution (GIBCO BRL, USA) under a 5% CO2 atmosphere at 37° C.
# A Matrigel matrix (BD Biosciences, USA) was melted and kept at 4° C. on ice, and then, 50 μL of the matrix were transferred to each well of a 96-well tissue culture plate. The plate was incubated at 37° C. for at least one hour to solidify the matrix solution. […]
# After the incubation, 20 μL of a 90% alamarBlue reagent were added to individual wells, and incubated for an additional 6 hours. Then, the fluorescence intensity of each well was measured at an excitation wavelength of 530 nm and an emission wavelength of 590 nm using a Spectrafluor Plus plate reader to count the number of living cells. […] The 50% lethal concentration was calculated as the concentration at which the number of living cells was 50% of the number of cells at the start of the experiment.
# [2] = test system: hair regrowth in telogen-phase C3H/HeN Slc mice; assay: Examination of trichogenous effect (hair regrowth on shaved back of mice); type: in vivo; settings: 10 mg/mL test solution
# Description: The trichogenous effect in mice of the astaxanthin monoester obtained in Preparation Example 1 was examined. The astaxanthin monoester obtained in Preparation Example 1 was dissolved in 20% (v/v) ethanol-containing a-tocopherol to prepare a 10 mg/mL astaxanthin monoester test solution. Male 7-week-old C3H/HeN Slc (SPF) mice were divided into three groups, i.e., a test group, a positive control group, and a negative control group, of 10 each. It should be noted that 45 to 95-day-old C3H mice are in the telogen phase of the hair cycle. Hairs were shaved from a site measuring 5 cm x 3 cm on the back of each mouse, and the above-described test solution was applied to that site in a dosage of 0.05 mL once a day for 18 days to observe the conditions of hair regrowth. In the positive control group, 1% (w/v) minoxidil (in 50% (v/v) ethanol), and in the negative control group, 50% (v/v) ethanol were applied. The conditions of hair regrowth were evaluated, using the following scoring criteria, expressed in terms of percentage of the surface area of the test site where the observed change occurred.
# 1: skin changed to gray (in less than 50% of area)
# 2: skin changed to gray (in 50% or more of area) and hair regrowth was observed (in less than 50% of area)
# 3: skin changed to gray (in 50% or more of area) and hair regrowth was observed (in 50% or more but less than 80% of area)
# 4: hair regrowth was observed distinctly (in 80% or more but less than 100% of area)
# 5: hair regrowth was observed distinctly (in 100% of area)
substance,measurement,setting,value
astaxanthin monoester,LC50 (50% lethal concentration),[1],≥ 250 µM
same,trichogenous effect (hair regrowth scoring) compared to negative control group,"[2]; 0.05 mL applied once a day for 18 days to shaved back of male C3H/HeN mice, vs 50% ethanol",markedly superior trichogenous effect
same,appearance (onset) of trichogenous effect compared to positive control group,"[2]; 0.05 mL once a day for 18 days, topical, mice, vs 1% (w/v) minoxidil",appeared a little later than in the positive control group
same,rate of progress of hair regrowth after the hairs begun to grow,"[2]; 0.05 mL once a day for 18 days, topical, mice, vs 1% minoxidil and negative control",higher than that in the positive control group
